Reference: patent US20230277534A1 (Plexxikon Inc., priority 2011, published 2023)

How the values were obtained:
[1] = target: B-Raf V600E (Homo sapiens (Human), UniProt P15056, V600E); test: B-Raf V600E kinase biochemical activity assay (AlphaScreen, biotin-MEK1 substrate); conditions: 100 μM ATP
Outline: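 B-Raf V600E (0.1 ng) phosphorylated 100 nM biotin-MEK1 with 100 μM ATP (final) in HEPES pH 7.0 with Mg2+/Mn2+ for 45 min at room temperature. Compounds were tested over an 8-point serial dilution. Phospho-MEK1/2 was detected by AlphaScreen after 3 h with beads, and IC50 came from signal versus concentration.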

[2] = system: COLO205 colon adenocarcinoma cells (B-Raf V600E mutation); test: COLO205 cell growth inhibition (ATPlite); assay type: cell-based; conditions: Homo sapiens, COLO 205, 72 h, 3 days
Outline: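 Cells treated for 3 days at 37 °C, 5% CO2 with an 8-point 1:3 dilution series, top final concentration 10 μM, DMSO control. ATPlite luminescence used as a measure of cell number; IC50 from reading versus concentration.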

B-Raf V600E, sequence (P15056 whole entry V600E): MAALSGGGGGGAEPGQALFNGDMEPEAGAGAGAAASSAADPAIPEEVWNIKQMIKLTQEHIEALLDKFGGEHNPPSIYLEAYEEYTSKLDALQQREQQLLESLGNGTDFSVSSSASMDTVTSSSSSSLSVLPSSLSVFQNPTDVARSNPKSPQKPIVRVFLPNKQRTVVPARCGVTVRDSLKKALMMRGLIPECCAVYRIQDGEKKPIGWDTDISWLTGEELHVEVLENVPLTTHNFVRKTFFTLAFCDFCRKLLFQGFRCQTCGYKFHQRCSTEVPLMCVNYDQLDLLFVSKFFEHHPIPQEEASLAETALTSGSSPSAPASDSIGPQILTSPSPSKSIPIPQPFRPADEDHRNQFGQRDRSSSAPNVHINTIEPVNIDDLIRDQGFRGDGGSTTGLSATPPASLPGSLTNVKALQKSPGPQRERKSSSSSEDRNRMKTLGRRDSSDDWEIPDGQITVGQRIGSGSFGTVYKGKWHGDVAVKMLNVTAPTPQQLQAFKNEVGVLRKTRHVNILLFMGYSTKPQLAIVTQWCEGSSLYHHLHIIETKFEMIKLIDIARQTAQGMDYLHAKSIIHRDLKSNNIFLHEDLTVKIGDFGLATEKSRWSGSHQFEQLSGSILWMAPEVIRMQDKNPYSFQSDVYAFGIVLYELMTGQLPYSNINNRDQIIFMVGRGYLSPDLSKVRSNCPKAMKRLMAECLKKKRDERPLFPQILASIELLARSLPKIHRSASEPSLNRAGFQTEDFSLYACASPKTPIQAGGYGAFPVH

SMILES | IC50 [1] [µM] | IC50 [2] [µM]
CCN(C)S(=O)(=O)Nc1cccc(C(=O)c2c[nH]c3ncc(-c4cncc(C#N)c4)cc23)c1F [Compound P-0101, 5-(5-cyano-3-pyridyl)-3-[3-[[ethyl(methyl)sulfamoyl]amino]-2-fluoro-benzoyl]-1H-pyrrolo[2,3-b]pyridine] | < 0.1 | > 1
CCCN(C)S(=O)(=O)Nc1ccc(F)c(C(=O)c2c[nH]c3ncc(-c4cnc(C5CC5)nc4)cc23)c1F [Compound P-0078, 5-(2-cyclopropylpyrimidin-5-yl)-3-[2,6-difluoro-3-[[methyl(propyl)sulfamoyl]amino]benzoyl]-1H-pyrrolo[2,3-b]pyridine] | < 0.1 | > 1
COc1ncc(-c2cnc3[nH]cc(C(=O)c4cccc(NS(=O)(=O)N5CCCC5C)c4F)c3c2)cn1 (stereo not drawn) [Compound P-0074, N-[2-fluoro-3-[5-(2-methoxypyrimidin-5-yl)-1H-pyrrolo[2,3-b]pyridine-3-carbonyl]phenyl]-2-methyl-pyrrolidine-1-sulfonamide] | > 0.1 | > 1
CCN(C)S(=O)(=O)Nc1ccc(F)c(C(=O)c2c[nH]c3ncc(-c4cccc(N5CCOCC5)c4)cc23)c1F [Compound P-0259, 4-[3-[3-[3-[[ethyl(methyl)sulfamoyl]amino]-2,6-difluoro-benzoyl]-1H-pyrrolo[2,3-b]pyridin-5-yl]phenyl]morpholine] | < 0.1 | < 1
CN(CC1CC1)S(=O)(=O)Nc1cccc(C(=O)c2c[nH]c3ncc(-c4cnc(C5CC5)nc4)cc23)c1F [Compound P-0084, 3-[3-[[cyclopropylmethyl(methyl)sulfamoyl]amino]-2-fluoro-benzoyl]-5-(2-cyclopropylpyrimidin-5-yl)-1H-pyrrolo[2,3-b]pyridine] | < 0.1 | < 1
COc1ncc(-c2cnc3[nH]cc(C(=O)c4cccc(NS(=O)(=O)N5CC(F)(F)C5)c4F)c3c2)cn1 [Compound P-0088, 3,3-difluoro-N-[2-fluoro-3-[5-(2-methoxypyrimidin-5-yl)-1H-pyrrolo[2,3-b]pyridine-3-carbonyl]phenyl]azetidine-1-sulfonamide] | < 0.1 | > 1
N#Cc1cncc(-c2cnc3[nH]cc(C(=O)c4cccc(NS(=O)(=O)N5CCCC5)c4F)c3c2)c1 [Compound P-0093, N-[3-[5-(5-cyano-3-pyridyl)-1H-pyrrolo[2,3-b]pyridine-3-carbonyl]-2-fluoro-phenyl]pyrrolidine-1-sulfonamide] | < 0.1 | < 1
N#Cc1ccc(-c2cnc3[nH]cc(C(=O)c4cccc(NS(=O)(=O)N5CCCC5)c4F)c3c2)cn1 [Compound P-0094, N-[3-[5-(6-cyano-3-pyridyl)-1H-pyrrolo[2,3-b]pyridine-3-carbonyl]-2-fluoro-phenyl]pyrrolidine-1-sulfonamide] | < 0.1 | < 1
CCCN(C)S(=O)(=O)Nc1ccc(F)c(C(=O)c2c[nH]c3ncc(-c4cnc(OC)nc4)cc23)c1F [Compound P-0116, 3-[2,6-difluoro-3-[[methyl(propyl)sulfamoyl]amino]benzoyl]-5-(2-methoxypyrimidin-5-yl)-1H-pyrrolo[2,3-b]pyridine] | < 0.1 | < 1
CCOc1ncc(-c2cnc3[nH]cc(C(=O)c4c(F)ccc(NS(=O)(=O)N(C)CC)c4F)c3c2)cn1 [Compound P-0256, 5-(2-ethoxypyrimidin-5-yl)-3-[3-[[ethyl(methyl)sulfamoyl]amino]-2,6-difluoro-benzoyl]-1H-pyrrolo[2,3-b]pyridine] | < 0.1 | < 1
CCC(C)S(=O)(=O)Nc1cccc(C(=O)c2c[nH]c3ncc(-c4cnc(N5CCCC5)nc4)cc23)c1F (stereo not drawn) [Compound P-0225, N-[2-fluoro-3-[5-(2-pyrrolidin-1-ylpyrimidin-5-yl)-1H-pyrrolo[2,3-b]pyridine-3-carbonyl]phenyl]butane-2-sulfonamide] | < 0.1 | < 1
CCCN(C)S(=O)(=O)Nc1cccc(C(=O)c2c[nH]c3ncc(-c4ccc(C5CC5)nc4)cc23)c1F [Compound P-0114, 5-(6-cyclopropyl-3-pyridyl)-3-[2-fluoro-3-[[methyl(propyl)sulfamoyl]amino]benzoyl]-1H-pyrrolo[2,3-b]pyridine] | < 0.1 | < 1
CN(CC1CC1)S(=O)(=O)Nc1cccc(C(=O)c2c[nH]c3ncc(-c4ccc(C5CC5)nc4)cc23)c1F [Compound P-0115, 3-[3-[[cyclopropylmethyl(methyl)sulfamoyl]amino]-2-fluoro-benzoyl]-5-(6-cyclopropyl-3-pyridyl)-1H-pyrrolo[2,3-b]pyridine] | < 0.1 | < 1
Cc1ncc(-c2cnc3[nH]cc(C(=O)c4cccc(NS(=O)(=O)N(C)C)c4F)c3c2)cn1 [Compound P-0097, 3-[3-(dimethylsulfamoylamino)-2-fluoro-benzoyl]-5-(2-methylpyrimidin-5-yl)-1H-pyrrolo[2,3-b]pyridine] | < 0.1 | < 1

Now from value to molecule:

IC50 [1] [µM] | IC50 [2] [µM] | SMILES
< 0.1 | < 1 | CN1CCN(c2cc(-c3cnc4[nH]cc(C(=O)c5cccc(NS(=O)(=O)N6CCCC6)c5F)c4c3)ncn2)CC1 [Compound P-0322, N-[2-fluoro-3-[5-[6-(4-methylpiperazin-1-yl)pyrimidin-4-yl]-1H-pyrrolo[2,3-b]pyridine-3-carbonyl]phenyl]pyrrolidine-1-sulfonamide]
> 0.1 | < 1 | CCN(C)S(=O)(=O)Nc1ccc(F)c(C(=O)c2c[nH]c3ncc(-c4cnc(N5CCC5)nc4)cc23)c1F [Compound P-0277, 5-[2-(azetidin-1-yl)pyrimidin-5-yl]-3-[3-[[ethyl(methyl)sulfamoyl]amino]-2,6-difluoro-benzoyl]-1H-pyrrolo[2,3-b]pyridine]
< 0.1 | < 1 | O=C(c1cccc(NS(=O)(=O)N2CC[C@@H](F)C2)c1F)c1c[nH]c2ncc(-c3cnc(C4CC4)nc3)cc12 [Compound P-0327, (3R)—N-[3-[5-(2-cyclopropylpyrimidin-5-yl)-1H-pyrrolo[2,3-b]pyridine-3-carbonyl]-2-fluoro-phenyl]-3-fluoro-pyrrolidine-1-sulfonamide]
< 0.1 | > 1 | O=C(c1cccc(NS(=O)(=O)N2CCCC2)c1F)c1c[nH]c2ncc(C3CC3)cc12 [Compound P-0274, N-[3-(5-cyclopropyl-1H-pyrrolo[2,3-b]pyridine-3-carbonyl)-2-fluoro-phenyl]pyrrolidine-1-sulfonamide]
< 0.1 | < 1 | O=C(c1c(F)ccc(NS(=O)(=O)N2CCCC2)c1F)c1c[nH]c2ncc(-c3cnc(N4CCC4)nc3)cc12 [Compound P-0269, N-[3-[5-[2-(azetidin-1-yl)pyrimidin-5-yl]-1H-pyrrolo[2,3-b]pyridine-3-carbonyl]-2,4-difluoro-phenyl]pyrrolidine-1-sulfonamide]
< 0.1 | < 1 | CCN(C)S(=O)(=O)Nc1ccc(F)c(C(=O)c2c[nH]c3ncc(-c4csc(C(C)(C)O)n4)cc23)c1F [Compound P-0316, 4-[3-[3-[[ethyl(methyl)sulfamoyl]amino]-2,6-difluoro-benzoyl]-1H-pyrrolo[2,3-b]pyridin-5-yl]-2-(1-hydroxy-1-methyl-ethyl)thiazole]
< 0.1 | < 1 | O=C(c1cccc(NS(=O)(=O)N2CCCC2)c1F)c1c[nH]c2ncc(-c3cc(N4CCOCC4)ncn3)cc12 [Compound P-0321, N-[2-fluoro-3-[5-(6-morpholinopyrimidin-4-yl)-1H-pyrrolo[2,3-b]pyridine-3-carbonyl]phenyl]pyrrolidine-1-sulfonamide]
< 0.1 | < 1 | CN1CCN(c2cccc(-c3cnc4[nH]cc(C(=O)c5cccc(NS(=O)(=O)N6CCCC6)c5F)c4c3)n2)CC1 [Compound P-0324, N-[2-fluoro-3-[5-[6-(4-methylpiperazin-1-yl)-2-pyridyl]-1H-pyrrolo[2,3-b]pyridine-3-carbonyl]phenyl]pyrrolidine-1-sulfonamide]
< 0.1 | < 1 | CCN(C)S(=O)(=O)Nc1ccc(F)c(C(=O)c2c[nH]c3ncc(-c4ccc5c(c4)NC(=O)C5)cc23)c1F [Compound P-0309, 3-[3-[[ethyl(methyl)sulfamoyl]amino]-2,6-difluoro-benzoyl]-5-(2-oxoindolin-6-yl)-1H-pyrrolo[2,3-b]pyridine]
< 0.1 | > 1 | CCN(C)S(=O)(=O)Nc1cccc(C(=O)c2c[nH]c3ncc(C4CCC4)cc23)c1F [Compound P-0297, 5-cyclobutyl-3-[3-[[ethyl(methyl)sulfamoyl]amino]-2-fluoro-benzoyl]-1H-pyrrolo[2,3-b]pyridine]
< 0.1 | < 1 | CCN(C)S(=O)(=O)Nc1ccc(F)c(C(=O)c2c[nH]c3ncc(-c4cnc(N5CCNCC5)nc4)cc23)c1F [Compound P-0268, 3-[3-[[ethyl(methyl)sulfamoyl]amino]-2,6-difluoro-benzoyl]-5-(2-piperazin-1-ylpyrimidin-5-yl)-1H-pyrrolo[2,3-b]pyridine]
< 0.1 | > 1 | CCN(C)S(=O)(=O)Nc1ccc(F)c(C(=O)c2c[nH]c3ncc(-c4ccc(C(F)(F)F)cc4)cc23)c1F [Compound P-0301, 3-[3-[[ethyl(methyl)sulfamoyl]amino]-2,6-difluoro-benzoyl]-5-[4-(trifluoromethyl)phenyl]-1H-pyrrolo[2,3-b]pyridine]
< 0.1 | < 1 | C[C@@H]1CCN(S(=O)(=O)Nc2cccc(C(=O)c3c[nH]c4ncc(-c5cnc(C6CC6)nc5)cc34)c2F)C1 [Compound P-0271, (3R)—N-[3-[5-(2-cyclopropylpyrimidin-5-yl)-1H-pyrrolo[2,3-b]pyridine-3-carbonyl]-2-fluoro-phenyl]-3-methyl-pyrrolidine-1-sulfonamide]
